Data reported in patent US8354381B2, “Peptide compositions for oral care systems” (E I du Pont de Nemours and Company, priority 2009, dated 2013).
Where no end group is shown, it is not given here. The star is where a group is joined. Biotin = O=C1N[C@H]2[C@H](CS[C@H]2CCCCC(=O)*)N1

B1: PGSGGGGSPYSETPNDQKPNPHYKVSGTKGPEEAAKKEEAAKKPAYSETPNDQKPNPHYKVSGTKGPGGHHHHHH (peptide)
chain: PGSGGGGSPYSETPNDQKPNPHYKVSGTKGPEEAAKKEEAAKKPAYSETPNDQKPNPHYKVSGTKGPGGHHHHHH
modifications: Synthetic peptide composition
B2: PGSGGGGSPYSETPNDQKPNPHYKVSGTKGPEPEPEPEPIPEPPKEAPVVIEKPKPKPKPKPKPPAYSETPNDQKPNPHYKVSGTKGPGGHHHHHH (peptide)
chain: PGSGGGGSPYSETPNDQKPNPHYKVSGTKGPEPEPEPEPIPEPPKEAPVVIEKPKPKPKPKPKPPAYSETPNDQKPNPHYKVSGTKGPGGHHHHHH
modifications: Synthetic peptide composition

Test system: pellicle coated enamel substrates
Test: not given
Settings: 20 μM biotinylated peptide, streptavidin-HRP, normalized to DenP03, three replicates
Method: A total of 20 synthetic peptides were manufactured using sequences obtained from Table 6. Peptides were obtained from SynBioSci Corp. (Livermore, Calif.) and included an additional sequence (SSRP; SEQ ID NO: 118) at the N-terminus and biotin labeled lysine at the C-terminus.
Enamel substrates were cut into approximately 7 mm squares and mounted on wax mounting for incubation in the mouth for 30 min to form a pellicle coated surface. The pellicle coated enamel substrates were removed from the wax backing and placed in well plates with the pellicle surface exposed as in Example 5. Each pellicle coated substrate was incubated for 1 h at room temperature (˜22° C.) with 1 mL of blocking buffer, consisting of 1 mg/mL BSA in PBST (Pierce BUPH™ #28372 with 0.1% TWEEN® 20). The blocking buffer was removed by aspirating the liquid out of each well. The tube was rinsed 2 times with wash buffer consisting of PBST. The wells were filled with 500 μL of 20 μM peptide solution which was prepared by diluting in blocking buffer. The samples were incubated for 30 min with slow shaking at 37° C. The non-binding peptide was removed by washing 6 times with PBST. Then, 500 μL of horseradish peroxidase/streptavidin conjugate (Pierce #22127), diluted 1:2000 in PBST, was added and incubated for 1 h at room temperature (˜22° C.). The conjugate solution was removed and was washed 4 times with PBST.
Each enamel substrate was removed from the well and washed again in a 15-mL test tube with 10 mL of PBST. Each enamel substrate was then mounted in a clean well plate with only the enamel surface exposed. A 1:1 solution of TMB substrate and H2O2 (200 μL) was added to each well and the color was allowed to develop for between 10 to 20 min, typically for 15 min, at room temperature (˜22° C.). Then, 100 μL of solution from each well was transferred to a 96 well reading plate containing stop solution (100 μL of 2 M H2SO4) in each well. The A450 was measured using a microplate spectrophotometer (Molecular Devices, Sunnyvale, Calif.). […] Each sequence was tested with three replicate enamel coated pellicle substrates.

Row | Molecule | O.D.450 (normalized)
1 | SSRPQVPDYLSPTHQKKAFLEIPTK(Biotin) [DenP29-A] | 0.468
2 | SSRPSEARARTFNDHTTPMPIIK(Biotin) [DenP14-A] | 0.269
3 | SSRPTMTNHVYNSYTEKHSSTHRSK(Biotin) [DenP2-A] | 0.273
4 | SSRPTTGSSSQADTSASMSIVPAHK(Biotin) [DenP17-A] | 0.143
5 | SSRPTYQGVPSWPAVIDDAIRRK(Biotin) [DenP19-A] | 0.712
6 | SSRPVEPATKNMREARSSTQMRRIK(Biotin) [DenP4-A] | 0.803
7 | SSRPVNPNWVETQALHQPPGNTK(Biotin) [DenP20-A] | 0.590
8 | SSRPYLLPKDQTTAPQVTPIVQHKK(Biotin) [DenP5-A] | 0.462

Test system: pellicle coated bovine enamel
Test: Phage ELISA of brushed 8 hr pellicle candidates, screened with 30 min in vivo pellicle (Example 8)
Format: binding, human
Settings: 10^11 pfu phage, 30 min in vivo pellicle on bovine enamel, normalized to DenP3
Method: (§1) A total of 18 selected phage candidates were used in a phage ELISA Experiment. Purified phage lysates were used for binding to pellicle coated bovine enamel using an anti-M13 phage antibody conjugated to horseradish-peroxidase, followed by the addition of chromogenic agent TMB. The plates were read at A450 nm.
The wells were rinsed 2 times with wash buffer consisting of PBST. The wells were filled with 1 mL of 10^11 pfu purified phage stock which was prepared by diluting in blocking buffer. […] The non-binding phage was removed by washing 5 times with PBST. Then, 500 μL of horseradish peroxidase/anti-M13 antibody conjugate (Amersham USA, Piscataway, N.J.), diluted 1:500 in the blocking buffer, was added and incubated for 45 min at room temperature. The conjugate solution was removed and was washed 5 times with PBST.

Row | Molecule | O.D.450 (normalized)
9 | AIEYQHSATTPWTMRTRLPP (Synthetic oral-surface binding peptide) [DenP101] | 0.467
10 | DGYKLQTSLDWQMWNP (Synthetic oral-surface binding peptide) [DenP111] | 1.051
11 | EFYPFAEVPPEKSGIGRQVF (Synthetic oral-surface binding peptide) [DenP102] | 0.520
12 | FPSKWYNHHRHITGHV (Synthetic oral-surface binding peptide) [DenP112] | 0.413
13 | GGMGALESYRQWNHLA (Synthetic oral-surface binding peptide) [DenP113] | 1.348
14 | GINKGQRPPWESWHEN (Synthetic oral-surface binding peptide) [DenP114] | 0.703
15 | GVHQYSRPTVPSYLWTSGQH (Synthetic oral-surface binding peptide) [DenP103] | 0.879
16 | GYGQYVSQQTWAHSNK (Synthetic oral-surface binding peptide) [DenP115] | 0.501
17 | GYQPHYVDHTIGWQPMIRPN (Synthetic oral-surface binding peptide) [DenP104] | 0.790
18 | HDHLSWWGQFDRQNLL (Synthetic oral-surface binding peptide) [DenP116] | 1.055
19 | MPGHQESIKVQNWNRV (Synthetic oral-surface binding peptide) [DenP117] | 0.433
20 | NLHSPWPSHAAHHWST (Synthetic oral-surface binding peptide) [DenP118] | 0.641
21 | NQQMKLVPQHWHRAQP (Synthetic oral-surface binding peptide) [DenP119] | 1.051
22 | QFNQTSHSFMHGTSGYVPGK (Synthetic oral-surface binding peptide) [DenP105] | 0.470
23 | SFSWHRGDWELGHQSKTMGM (Synthetic oral-surface binding peptide) [DenP106] | 1.524
24 | SMWHDITKRYRNPSEMVSAY (Synthetic oral-surface binding peptide) [DenP107] | 0.726
25 | THGNKHQSWTYPSEINHKNY (Synthetic oral-surface binding peptide) [DenP108] | 1.149
26 | TTYHYKNIYQESYQQRNPAV (Synthetic oral-surface binding peptide) [DenP3] | 1.000
27 | WHEPHQFSGENTDYSSSMGT (Synthetic oral-surface binding peptide) [DenP109] | 0.716

Test system: not listed separately
Test: Peptide-mediated deposition of Co-NTA beads on bovine enamel, SEM
Format: binding
Settings: 20 μM peptide, Co-NTA beads, SEM 1000×, 2500×, 5000×
Excerpt: Bovine enamel incisors were obtained from SE Dental (Baton Rouge, La.). Teeth were sectioned and cut into enamel slabs approx. 5 mm on each side using a DREMEL® rotary (Robert Bosch LLC, Farmington Hills, Mich.) saw with a diamond blade. The enamel slabs were cleaned and embedded in a well plate contained molding material so as to only expose the enamel surface in the well.
Polystyrene beads with cobalt-NTA coating (DYNABEADS® TALON®) were obtained from Invitrogen (item#101.02D) as a slurry of 40 mg/mL. The slurry (50 μL; 2 mg beads) was resuspended and washed with 700 μL of binding buffer (50 mM sodium phosphate, pH 8.0, 300 mM NaCI, 0.01% TWEEN® 20) in preparation for His6 binding.
Peptides were dissolved in phosphate buffered saline (Pierce, pH 7.2) at a concentration of 20 μM. Peptide solution (500 μL) was placed in each well containing an enamel slab. Enamel slabs exposed to only PBS in this step were used as a control. Samples were incubated with peptide solution with gentle agitation for 30 min. The peptide solution and PBS were removed from the well plate and each well was rinsed 3 times with repeated additions of PBS. TALON® beads (50 μL) were added to each well and incubated with gentle agitation for 30 min. The TALON® solution was removed and the samples were washed three times with the same binding buffer.
Each enamel sample was removed from the well plate and rinsed again with buffer. […] The enamel slabs were further examined by Electron Microscopy (Hitachi TM-1000 Tabletop SEM Microscope) at 1000×, 2500× and 5000× magnification. […] Little to no beads were found on the no peptide control. […]

Row | Molecule | Bead coverage by electron microscopy (in words)
28 | B1 | bead binding at a lower degree than the other samples

Same assay, conditions: 20 μM peptide, then Co-NTA TALON beads; SEM at 5000X

Row | Molecule | Particles per um^2 at 5000X
29 | PHMASMTGGQQMGSYSETPNDQKPNPHYKVSGTKGPEEAAKKEEAAKKPAYSETPNDQKPNPHYKVSGTKGSGGGGSGSGGGGSLNSMSDKHHGHQNTATRNQHGGGLNSMSDKHHGHQNTATRNQHGGHHHHHH [DE008] | 0.31 Particles per um^2
30 | B1 | 0.17 Particles per um^2
31 | B2 | 0.39 Particles per um^2

Test system: pellicle coated bovine enamel
Test: Phage ELISA on pellicle coated bovine enamel (Example 6)
Format: binding, human
Settings: 10^11 pfu phage, 30 min in vivo pellicle on bovine enamel, normalized to an internal control
Method: as §1, with “29” for “18”, “candidates from Table 5” for “candidates”, “in” for “in a”, “Experiment to determine binding affinity and coverage of each phage on pellicle substrates.” for “Experiment.”
The wells were filled with 1 mL of 10^11 pfu purified phage stock which was prepared by diluting in blocking buffer. […] The non-binding phage was removed by washing 5 times with PBST. […] The conjugate solution was removed and was washed 3 times with PBST.

Row | Molecule | O.D.450 (normalized)
32 | TTYHYKNIYQESYQQRNPAV (Synthetic oral-surface binding peptide) [DenP3] | 2.495

Test system: not listed separately
Test: Phage ELISA, bovine enamel-binding assay
Settings: over 10^10 pfu phage, unpolished bovine enamel, A450
Method: A total of 11 selected phage candidates (Example 3) was used in a phage ELISA experiment. Purified phage lysates were used for binding to the enamel blocks using an anti-M13 phage antibody conjugated to horseradish-peroxidase, followed by the addition of chromogenic agent TMB. The plates were read at A450 nm.
For each phage candidate to be tested, the polished and unpolished enamel blocks were incubated for 1 h at room temperature with 200 μL of blocking buffer, consisting of 2% non-fat dry milk (Schleicher & Schuell, Inc.) in TBS. […] The tube was rinsed 6 times with wash buffer consisting of TBST-0.05%. The wells were filled with 200 μL of TBST-0.5% containing 1 mg/mL BSA and then 10 μL (over 10^10 pfu) of purified phage stock was added. The samples were incubated at room temperature for 60 min with slow shaking. The non-binding phage was removed by washing 6 times with TBST-0.5%. […] The conjugate solution was removed and was washed 6 times with TBST-0.5%. […] BoEn P means bovine polished enamel and BoEn means bovine enamel.

Row | Molecule | O.D.450
33 | AANPHTEWDRDAFQLAMPPK (Synthetic oral-surface binding peptide) [BoEn 1] | 1.402
34 | LNDQRKPGPPTMPTHSPAVG (Synthetic oral-surface binding peptide) [BoEn 5] | 0.944
35 | NTCATSPNSYTCSN (Synthetic oral-surface binding peptide) [BoEn 6] | 2.38
36 | SDCTAGLVPPLCAT (Synthetic oral-surface binding peptide) [BoEn 7] | 0.892
37 | VGTMKQHPTTTQPPRVSATN (Synthetic oral-surface binding peptide) [BoEn 9] | 0.568
38 | YSETPNDQKPNPHYKVSGTK (Synthetic oral-surface binding peptide) [BoEn 10] | 3.942
